Test [1] concerns SH-1 human melanoma cells. Description: growth of SH-1 melanoma cells in-vitro (FIG. 5). The note with it: SH-1, 10 μM BESPM, 48 hours. It is filed as cell-based. The protocol: (§1) As mentioned previously, cells from malignant solid tumor respond to polyamine analog therapy heterotypically. SSAT induction and antitumor response may vary not only among the solid tumor tissue type, but also with the clonal line of tumor of a particular solid tissue type. However, a correlation between the level of induction of SSAT and the potency of antitumor response has been observed in tumors of a particular solid tissue type. For example, seven human melanoma cell lines were assayed in-vitro for their response, as determined by cell growth and level of SSAT induction, to 10 μM BESPM at 48 hours post-treatment. As summarized in FIG. 5, growth among the cell lines decreases as SSAT induction increases.

Test [2] deals with MALME-3 melanoma cells. Kind of test: N^1 -acetylspermidine in MALME-3 cell cultures. It is filed as cell-based, human. The note with it: MALME-3, 10 μm BESPM, 48 hours. As for the experimental part: To illustrate this embodiment, LOX and MALME-3 cell cultures were treated for 48 hours with 10 μm BESPM. The cells from each culture were harvested and assayed for SSAT activity. Media samples were prepared by treating the samples with 50% trichloroacetic acid to give a final concentration of 10% and then centrifuged at 15,000×g for 10 minutes. The supernatant was then filtered through a 0.22-μm filter, extracted with several volumes of ether, lyophilized, and resuspended in 10% trichloroacetic acid. N^1 -acetylspermidine levels of cells and media samples were then measured by use of high-pressure liquid chromatography. […] Similarly, N^1 -acetylspermidine levels from MALME-3 control cells, media from control cell cultures, and treated MALME-3 cells contained minimal levels of N^1 -acetylspermidine.

Test [3] concerns MALME-3 human melanoma cells. Description: growth of MALME-3 melanoma cells in-vitro (FIG. 5). In kind it is cell-based. To be noted: MALME-3, 10 μM BESPM, 48 hours. The protocol: as §1

Turning to `CCNCCCNCCCCNCCCNCC` [BESPM, N^1,N^12-bis(ethyl)spermine], the “growth inhibition (FIG. 5)” value is reported as “least growth inhibition” in test [1] and “greatest growth inhibition” in test [3]. In addition, the “N^1 -acetylspermidine Intracellular” value in test [2] was 0.1 nmol/culture.

For the origin of these results see patent US5498522A, “Methods for the use of spermidine/spermine N^1 -acetyltransferase as a prognostic indicator and/or a tumor response marker” (priority 1993, dated 1996).
